Results: US11642322B2, “Food supplement and composition comprising choline butyrate salt and/or butyrylcholine” (A[…], priority 2016, dated 2023)
Where two headings read alike, the source gives them in different places.

Tests used:
[1] = 1100 mg per kilogram feed, first day of life till day 39
Text: 396 days old ROSS® 308 meat chickens were used for this test. The test lasted from the first day of life of the chickens till day 39. […] The uncertainty of the measurement value is lower than 0.05.
(§1) The design of the test was for the rest similar to the one described above.

villi = details: 1100 mg per kilogram feed; for average length of the villi: 5 chickens
Experimental: 20 days old ROSS® 308 meat chickens were used for this test. The test lasted from the first day of life of the chickens till day 39. […] The average length of the villi of 5 chickens was measured for each group after 14 days. […] The average length of the villi of 5 chickens was measured for each group after 39 days. […] The uncertainty of the measurement value is lower than 0.05.
as §1

coccidiose = test: Influence on Coccidiose infection (chickens in a shed infected with coccidiose); details: 1100 mg per kilogram feed, till day 39
Text: 496 days old ROSS® 308 meat chickens were used for this test and were placed in a shed that was infected with coccidiose. The test lasted from the first day of life of the chickens till day 39. […] The uncertainty of the measurement value is lower than 0.05.

Experimental for CD3+ T-cells: 20 days old ROSS® 308 meat chickens were used for this test. The test lasted from the first day of life of the chickens till day 14. […] On day 14, the average amount of CD3+ T-cells was determined for both groups.

Structure (SMILES)	decrease of the FCR value with respect to the control group [1]	increase of the length of the villi compared to the control group (villi; after 39 days)	change of the surface percentage for CD3+ compared to the control group (in words) (CD3+ T-cells; similar design, added to the feed)	FCR value ([1]; test group)	increase of the length of the villi compared to the control group (villi; after 14 days)	average length of the villi (villi; after 14 days)	average length of the villi (villi; after 39 days)	increase of the surface percentage for CD3+ versus control group (CD3+ T-cells; day 14, 1100 mg per kilogram feed)	surface percentage for CD3+ (CD3+ T-cells; day 14, test group, 1100 mg per kilogram feed)	animals that died, supplemented group versus control (coccidiose)	decrease of the FCR value versus control group (coccidiose)	FCR value (coccidiose; test group)
CCCC(=O)OCC[N+](C)(C)C [butyrylcholine, (N,N,N-trimethyl)-2-ammoniumethylbutanoate]	5%	21%	increase									
CCCC(=O)[O-].C[N+](C)(C)CCO [choline butyrate]	5%	21%		1.57	7%	779 μm	1231 μm	27%	23 surface percentage	more animals died	13%	2.22
